Assay results from PMC9967085, “Properly Substituted Benzimidazoles as a New Promising Class of Nicotinate Phosphoribosyltransferase (NAPRT) Modulators” (Pharmaceuticals, 2023).
Several values for one entry are separate records, joined by “and”; a condition that tells them apart may be missing. Equal values may be shown once. Read-outs that look alike come from different tables or passages of the source.

Key:
[1] = Plasma protein binding by equilibrium dialysis, mouse; format: in vitro ADME; details: performed at 0.5 μM, read-out: Protein Binding, Mouse plasma (FU)
Protocol: (§1) The in silico ADME characterization has recently been reported for NAPRT inhibitors 1, 15 and 16, belonging to different chemotypes, and the results indicated promising pharmacokinetic features for the studied compounds [17]. With the aim to preliminarily shed light on the pharmacokinetics of this series of compounds, 18 was evaluated for its in vitro ADME profile. Kinetic solubility at pH 7.4, plasma protein binding from human and mouse species determined by using equilibrium dialysis, intrinsic hepatic clearance determined in human and mouse liver microsomes, and permeability studies in MDCKII (Madin–Darby canine kidney cells, a cell strain derived from the distal tubule or collecting duct of the nephron) and MDCKII-MDR1 (MDCK II cells overexpressing the multidrug resistance protein 1, MDR1) cell lines were performed according to previously reported procedures. Both cell lines were originally obtained from American Type Culture Collection (ATCC) and have been cultured and amplified with respect to permeability assessment at the test site.

Human recombinant NAPRT [2] = target: T1, Human recombinant NAPRT (Homo sapiens, UniProt Q6XQN6); experiment: HPLC-based NAPRT activity screening assay; format: biochemical
T1 construct: made in house
T1 sequence (Q6XQN6 1-538): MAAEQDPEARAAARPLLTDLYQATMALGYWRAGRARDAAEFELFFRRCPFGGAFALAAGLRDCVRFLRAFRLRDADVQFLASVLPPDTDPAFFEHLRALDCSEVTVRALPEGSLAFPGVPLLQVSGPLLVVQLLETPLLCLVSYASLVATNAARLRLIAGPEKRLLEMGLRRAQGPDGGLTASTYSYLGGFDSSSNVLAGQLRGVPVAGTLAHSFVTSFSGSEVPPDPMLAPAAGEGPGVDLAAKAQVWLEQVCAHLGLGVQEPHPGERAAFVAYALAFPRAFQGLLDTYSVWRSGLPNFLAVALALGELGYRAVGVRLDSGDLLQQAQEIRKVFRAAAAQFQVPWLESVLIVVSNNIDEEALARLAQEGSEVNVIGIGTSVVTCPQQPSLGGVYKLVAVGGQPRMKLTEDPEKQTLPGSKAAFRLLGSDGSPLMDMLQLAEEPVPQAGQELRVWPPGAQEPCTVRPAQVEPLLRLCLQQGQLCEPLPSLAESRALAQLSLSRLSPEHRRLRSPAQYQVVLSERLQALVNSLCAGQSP

[3] = Plasma protein binding by equilibrium dialysis, human; format: in vitro ADME; details: performed at 0.5 μM, read-out: Protein Binding, Human plasma (FU)
Protocol: as §1

Human recombinant NAPRT [4] = target: T1, Human recombinant NAPRT; experiment: Kinetic analyses of NAPRT inhibition (HPLC assay, Lineweaver–Burk plot); format: biochemical
[5] = Hepatic intrinsic clearance in mouse liver microsomes; format: in vitro ADME
Protocol: as §1

MDR1 = experiment: Permeability in MDCKII-MDR1 cells; format: in vitro ADME, canine; details: dog, MDCK-MDR1
Protocol: as §1

MDCKII-MDR1 = experiment: Permeability in MDCKII-MDR1 cells; format: in vitro ADME, canine; details: from efflux ratio in MDCKII-MDR1
Protocol: as §1

[6] = Permeability in MDCKII cells; format: in vitro ADME, canine; details: dog, MDCK
Protocol: as §1

[7] = Hepatic intrinsic clearance in human liver microsomes; format: in vitro ADME
Protocol: as §1

[8] = Kinetic solubility at pH 7.4; format: physicochemical; details: pH 7.4, aqueous buffer, kinetic from dmso stock
Protocol: as §1

fraction unbound at 0.5 μM [1]: > 0.5
Effect on NAPRT catalytic activity (in words) (Human recombinant NAPRT [2]): inhibit NAPRT activity
inhibition at 1000 µM (Human recombinant NAPRT [2]; 1 mM compound, 0.2 mM NA, 0.4 mM PRPP, read-out: % Inhibition): 46.1 ± 8.1%
fraction unbound at 0.5 μM [3]: 0.146
Inhibition mechanism towards NA (Human recombinant NAPRT [4]): noncompetitive
Inhibition mechanism towards PRPP (Human recombinant NAPRT [4]): mixed
Ki (Human recombinant NAPRT [4]; NA 25 µM to 100 µM at 0.4 mM PRPP, noncompetitive, read-out: Ki towards NA): 338 µM
Ki (Human recombinant NAPRT [4]; PRPP 25 µM to 100 µM at 0.4 mM NA, mixed, read-out: Ki towards PRPP): 134 µM
Mouse Cli ([5]; mouse liver microsomes): 120 µL/min/mg protein
WSM in vivo prediction ([5]; mouse, well-stirred model): 26.9 mL/min/kg
Papp A→B (MDR1; apical to basolateral): 0.339 ×10⁻⁶ cm/s
Papp B→A (MDR1; basolateral to apical): 17.4 ×10⁻⁶ cm/s
efflux ratio (MDR1; read-out: Efflux Ratio MDCKII-MDR1 (B-A/A-B)): 51.3
P-gp substrate status (MDCKII-MDR1): P-gp substrate
Papp A→B ([6]; apical to basolateral): 3.83 ×10⁻⁶ cm/s
Papp B→A ([6]; basolateral to apical): 6.59 ×10⁻⁶ cm/s
efflux ratio ([6]; read-out: Efflux Ratio MDCKII (B-A/A-B)): 1.7
Human Cli ([7]; human liver microsomes): <9.92 µL/min/mg protein
WSM in vivo prediction ([7]; human, well-stirred model): 6.83 mL/min/kg
solubility kinetic [8]: 312 µM and 130 µg/mL
SMILES: CC(=O)Nc1cccc(CNc2ccc3c(c2)nc(C)n3C)c1 [Compound 18, N-(3-(((1,2-dimethyl-1H-benzo[d]imidazol-5-yl)amino)methyl)phenyl)acetamide]
-Fold Stimulation (not active class) (Human recombinant NAPRT [2]; 1 mM compound, 0.2 mM NA, 0.4 mM PRPP): - (Not active, it is referred to compounds showing less than 10% inhibition or less than 1.10-fold stimulation)
